Key:
[1] = test system: haematopoietic stem cells (HSCs) and multipotent progenitor cells (MPPs); assay: Flow cytometry of bone marrow haematopoietic progenitor cell populations from aged mice fed Urolithin A; format: in vivo; settings: aged C57BL/6J mice, 50 mg/kg/day in diet, 34 weeks; for HSC population as % of total bone marrow cells and number of cells: FIG. 4, versus untreated aged animals, cell number p<0.05, 50 mg/kg/day
Procedure: To determine if Urolithin A treatment had any effects on stem cell populations, haematopoietic stem cells, (HSCs) and multipotent progenitor cells (MPPs) were isolated from aged C57BL/6J mice that received either a standard rodent diet or a diet containing Urolithin A mixed with food to reach a dosing of 50 mg/kg/day delivered to mice. Mice were treated with urolithin A starting at 16 months of age and received 34 weeks of treatment. At end of the treatment period mice were sacrificed and bone marrow collected from the femur and tibia bones. Single-cell suspensions were made following cell extraction from the bones after removal of muscle and connective tissue.
To determine the effects of Urolithin A treatment on the different progenitor cells of the haematopoietic system, the number and percentage of each progenitor cell type was determined using flow cytometry. Flow cytometry allowed the selection and quantification of cells with different patterns of protein expression on their cell surface. Using labeled monoclonal antibodies, it was possible to identify the different progenitor cell population based on their cell surface protein expression. To isolate the undifferentiated cells which would contain the progenitor population, bone marrow cells were stained with a cocktail of monoclonal antibodies against the cell surface proteins specific to the more differentiated cell types. The antibodies to these proteins, also known as lineage markers were CD3e (17A2), CD4 (GK1.5), CD8a (53.6.7), CD11b (M1/70), CD19 (1D3), Gr1 (RB6.8C5), Ter119 and NK1.1 (PK136), these were conjugated to Alexa 647 [Alexa Fluor 647 dye is a bright, far-red—fluorescent dye used as a label in, for example, fluorescence microscopy]. To discriminate the various lineage progenitor cell populations the isolated bone marrow cells were stained with monoclonal antibodies against the following progenitor cell surface protein markers containing the following labels CD34 (RAM 34)-FITC; CD135 (Flt3 A2F10)-PE; CD48 (HM48.1)-biotin+PE Texas Red Streptavidin; CD117 (ckit 2B8) PerCp-Cy5.5; Sca1 (D7)-PE-Cy7. Cell analysis of the stained cells was performed on a Becton Dickson Flow cytometer (Franklin Lake, NJ, USA) and collected data was analyzed using Flowjo™ software (an analysis platform for single-cell flow cytometry analysis). Bone marrow was isolated from three mice receiving Urolithin A treatment, and six control untreated mice.
To identify the different populations of haematopoietic progenitor cells present in the isolated bone marrow cells, the isolated bone marrow cells were selected based on their cell surface marker combinations. A so-called gating strategy was employed, in which a particular population of cells is selected (gated) based on the pattern of cell surface protein expression, and then this sub-selected population then is further examined for its cell surface protein expression. […] Uncommitted progenitor cells were examined by selecting cells that were negative for the cell surface proteins found on differentiated cells (lineage markers) described above (FIG. 2B). From this population of lineage negative cells, cells were selected that stained positive for the cells surface markers, CD117 (c-kit) and Sca1. This subpopulation of lineage negative, CD117 & Sca1 positive cells (LKS cells) contain the progenitor stem cells (FIG. 2C).
LKS cells can be further divided into four different progenitor cell types, HSC (LT-HSC), MPP 1 (ST-HSC), MPP2, and MPP3 or LMPP with decreasing levels of quiescence (FIG. 1B). The most quiescent and non-committed cells are the HSC cells. To differentiate between these cell populations in the LKS cells, Cells were examined for their expression of CD150 and CD48. The most primitive quiescent cell populations, HSC+MPP1, are positive for the cell surface marker for CD150 and negative for the cell surface marker CD48. […]

IL-10 / IL-12 (p40) = assay: Plasma cytokines (MILLIPLEX panel) in aged mice after Urolithin A in diet; format: in vivo; settings: 22 months old male C57BL/6J mice, 50 mg/kg/day in diet, 6 weeks; FIG. 6; p<0.05
Procedure: Urolithin A is admixed to AIN-93G Growing Rodent Diet (Research Diet, New Brunswick, NJ, USA) at a concentration of 0.5 g/per kg of diet, corresponding to a dose of 50 mg/kg/dy. Pellets with or without UA are given to 22 months old male C57BL/6J mice (Janvier, Saint Berthevin, France) for 6 weeks. A total of 32 mice are housed individually and randomized to 16 animals per group according to their exercise capacity. Animals who die spontaneously during the experiments are excluded from the calculations. These criteria were established before starting the experiments. Animals are euthanized after 6 weeks of treatment after an overnight fasting before collecting blood samples by the vena cava. Blood samples are centrifuged for 15 minutes at 1,500×g, and the plasma supernatant is transferred into a clean tube. Plasma is analyzed for cytokines using the MILLIPLEX MAP Mouse Cytokine/Chemokine Magnetic Bead Panel (MCYTOMAG-70K).
IL-10 is an important anti-inflammatory cytokine (Fiorentino D F, et al., IL-10 inhibits cytokine production by activated macrophages. J Immunol. 1991 Dec. 1; 147(11):3815-22; Fiorentino D F et al., IL-10 acts on the antigen-presenting cell to inhibit cytokine production by Th1 cells. J Immunol. 1991 May 15; 146(10):3444-51). […]

With `O=c1oc2cc(O)ccc2c2ccc(O)cc12` [Urolithin A] the “HSC population as % of total bone marrow cells and number of cells” value [1] was “increase”, the “HSC population as % of total bone marrow cells and number of cells” value ([1]; listed as urolithin A) was “significant increase” and the “LSK (c-Kit+, Lin-, Sca1+) progenitor cells as % of lineage negative cells” value ([1]; bone marrow, example plot FIG. 2C, control 3.16%) was 5.27%. The “% of LSK cells that are HSC+MPP1 (CD150+, CD48-)” value ([1]; example animal FIG. 3, untreated 53.1%) was 61.7%, the “% of HSC+MPP1 cells that are HSC (CD34-)” value ([1]; example animal FIG. 3, untreated 73.8%) was 81.7% and the “HSC + MPP1, % of undifferentiated cells (LSK cells)” value ([1]; group value n=3, untreated 40.75 ± 7.42%, p < 0.01) was 58.97 ± 11.30%. The “ratio of IL-10 over IL-12 (p40) in plasma” value (IL-10 / IL-12 (p40)) was “significant increase”.

From patent US12109190B2, “Urolithins as immune response enhancers” (Amazentis SA, priority 2018, dated 2024)
